Experimental data reported in patent publication US20140350273A1, “PEDIATRIC USES OF CABAZITAXEL” (AVENTIS PHARMA S.A., priority 2012, published 2014).
Where two headings read alike, the source gives them in different places. Marks after values point to notes of the source that are not given here.

Tested on: human osteosarcoma DM113
Type: in vivo
Description: The resultant solution contains 10 mg/mL of cabazitaxel. Stock solution of cabazitaxel was then diluted in 0.9% sodium chloride.
This efficacy may be quantified, for example, as changes in tumor volume for each treated (T) and control (C) group, which are calculated for each animal and each day by subtracting the tumor volume on the day of first treatment (staging day) from the tumor volume on the specified observation day. This allows calculating the tumor growth inhibition: ΔT/ΔC=(median delta T/median delta C)×100. Individual tumor volume changes from baseline are thereafter analyzed by a non-parametric two-way ANOVA-TYPE (with factors: group and repeated days) followed by a post-hoc contrasts analysis, with Bonferroni-Holm adjustment for multiplicity, comparing all treated groups to the control group. […] A probability less than 5% (p<0.05) was considered as significant.
Based on the National Cancer Institute (NCl) standards, a ΔT/ΔC≦40% is the minimal level required to declare activity.
This efficacy may also be quantified by the number of tumor regressions observed after therapy. Individual mice reporting a tumor volume ≦50% of the Day 0 measurement for two consecutive measurements over a seven day period were considered partial responders (PR). Individual mice lacking palpable tumors (<4×4 mm^2 for two consecutive measurements over a seven day period) were classified as complete responders (CR); a CR that persisted until study completion was considered a tumor-free survivor (TFS).
Efficacy could also be determined at study completion, using tumor growth delay (T-C) in days, which is calculated using the median time to endpoint (MTTE) value for each treatment (T) group versus control (C). A Log Rank multiple comparison test with Bonferroni-Holm adjustment for multiplicity was applied on individual TTE to compare the treated groups to the control group.
The animals subjected to the experiment are subcutaneously grafted unilaterally with approximately 30 mg of a tumor fragment from low passage pediatric patient-derived tumor xenografts. The animals are implanted with a human patient-derived pediatric tumor xenografted in immuno-compromised mice (Harlan; nu/nu). Several days post tumor implantation, mice are randomized according to their tumor burden to the different groups of treatments and controls. The agents are dosed intravenously at 5.8, 9.3, 15 or 24.2 mg/kg every 4 days for a total of 3 doses (q4d×3) to mice bearing a tumor burden at start of therapy (day 0) ranged from 125 to 250 mm^3.
Beginning Day 0, animals were observed daily and weighed twice weekly using a digital scale; data including individual and mean gram weights (Mean We±SD), mean percent weight change versus Day 0 were recorded for each group. Animal deaths were recorded daily and designated as drug-related (D), technical (T), tumor related (B), or unknown (U) based on weight loss and gross observation; single agent or combination groups reporting a mean >20% for a period of 7 days and/or >10% mortality were considered above the maximum tolerated dose (MTD) for that treatment on the evaluated regimen.
The selected tumor model, DM113, was a low passage patient-derived tumor xenograft derived from an osteosarcoma taken from the lung of a patient.
The following end points were used: • Toxicity was declared at dosages inducing ≧20% body weight loss or ≧10% drug death; • Antitumor efficacy was determined by calculating the ΔT/ΔC value in percent on day 28 post treatment initiation, according to the above mentioned formula; • Individual tumor volume changes from baseline were analyzed by a non-parametric two-way ANOVA-TYPE (with factors: group and repeated day from 3 to 28) followed by a post-hoc contrasts analysis, with Bonferroni-Holm adjustment for multiplicity, comparing all treated groups to the control group on day 28. […] The volume endpoint for T-C calculations was chosen to be 1600 mm^3.

[1] = 5.8 mg/kg i.v./q4dx3, volume endpoint 1600 mm^3
[2] = 9.3 mg/kg i.v./q4dx3, volume endpoint 1600 mm^3
[3] = 15 mg/kg i.v./q4dx3, volume endpoint 1600 mm^3
[4] = 24.2 mg/kg i.v./q4dx3, volume endpoint 1600 mm^3

Compound: CC(=O)O[C@@]12CO[C@@H]1C[C@H](O)[C@@]1(C)C(=O)[C@H](O)C3=C(C)[C@@H](OC(=O)[C@H](O)[C@@H](NC(=O)OC(C)(C)C)c4ccccc4)C[C@@](O)([C@@H](OC(=O)c4ccccc4)[C@H]21)C3(C)C [Docetaxel, docetaxel]
- #CR (5.8 mg/kg i.v./q4dx3): 0/0/0
- #PR (5.8 mg/kg i.v./q4dx3): 0/0/0
- #TFS (5.8 mg/kg i.v./q4dx3): 0/0/0
- Drug Deaths Total (5.8 mg/kg i.v./q4dx3): 0
- Weight Nadir % (5.8 mg/kg i.v./q4dx3): −2%
- Weight Nadir Day (5.8 mg/kg i.v./q4dx3): 3
- Tumor Volume Data (Day 28) Median (5.8 mg/kg i.v./q4dx3, day 28): 598 mm^3
- ΔT/ΔC % (5.8 mg/kg i.v./q4dx3, day 28): 42.9%
- MTTE [1]: 41 days
- T-C [1]: 9 days
- ΔT/ΔC (5.8 mg/kg q4d×3 IV, day 28): 42.9%
- tumor growth delay (T-C) (5.8 mg/kg q4d×3 IV, volume endpoint 1600 mm^3): 9 days
- tumor volume changes from baseline, Median +/− MAD (5.8 mg/kg, DAY 3): 22.5 +/− 22.5
- tumor volume changes from baseline, Median +/− MAD (5.8 mg/kg, DAY 8): 95 +/− 22.5
- tumor volume changes from baseline, Median +/− MAD (5.8 mg/kg, DAY 11): 117.5 +/− 45
- tumor volume changes from baseline, Median +/− MAD (5.8 mg/kg, DAY 14): 189 +/− 60.5
- tumor volume changes from baseline, Median +/− MAD (5.8 mg/kg, DAY 17): 242.5 +/− 110
- tumor volume changes from baseline, Median +/− MAD (5.8 mg/kg, DAY 21): 278.5 +/− 142
- tumor volume changes from baseline, Median +/− MAD (5.8 mg/kg, DAY 24): 435 +/− 159
- tumor volume changes from baseline, Median +/− MAD (5.8 mg/kg, DAY 28): 487 +/− 231.5
- tumor volume changes from baseline, Median +/− MAD (5.8 mg/kg, DAY 31): 598 +/− 204
- tumor volume changes from baseline, Median +/− MAD (5.8 mg/kg, DAY 35): 813 +/− 367
- tumor volume changes from baseline, Median +/− MAD (5.8 mg/kg, DAY 38): 960 +/− 388
- tumor volume changes from baseline, Median +/− MAD (5.8 mg/kg, DAY 42): 1032 +/− 326
- tumor volume changes from baseline, Median +/− MAD (5.8 mg/kg, DAY 46): 1340 +/− 384
- #CR (9.3 mg/kg i.v./q4dx3): 0
- #PR (9.3 mg/kg i.v./q4dx3): 1
- #TFS (9.3 mg/kg i.v./q4dx3): 0
- Drug Deaths Total (9.3 mg/kg i.v./q4dx3): 0*
- Weight Nadir % (9.3 mg/kg i.v./q4dx3): −3%
- Weight Nadir Day (9.3 mg/kg i.v./q4dx3): 17
- Tumor Volume Data (Day 28) Median (9.3 mg/kg i.v./q4dx3, day 28): 442 mm^3
- ΔT/ΔC % (9.3 mg/kg i.v./q4dx3, day 28): 27.4%
- MTTE [2]: 49 days
- T-C [2]: 17 days
- tumor volume changes from baseline, Median +/− MAD (9.3 mg/kg, DAY 3): 56.5 +/− 26.5
- tumor volume changes from baseline, Median +/− MAD (9.3 mg/kg, DAY 8): 85.5 +/− 27
- tumor volume changes from baseline, Median +/− MAD (9.3 mg/kg, DAY 11): 73 +/− 42.5
- tumor volume changes from baseline, Median +/− MAD (9.3 mg/kg, DAY 14): 85.5 +/− 34.5
- tumor volume changes from baseline, Median +/− MAD (9.3 mg/kg, DAY 17): 117.5 +/− 51.5
- tumor volume changes from baseline, Median +/− MAD (9.3 mg/kg, DAY 21): 140.5 +/− 52
- tumor volume changes from baseline, Median +/− MAD (9.3 mg/kg, DAY 24): 239 +/− 94.5
- tumor volume changes from baseline, Median +/− MAD (9.3 mg/kg, DAY 28): 311 +/− 75.5
- tumor volume changes from baseline, Median +/− MAD (9.3 mg/kg, DAY 31): 390 +/− 90.5
- tumor volume changes from baseline, Median +/− MAD (9.3 mg/kg, DAY 35): 545 +/− 52
- tumor volume changes from baseline, Median +/− MAD (9.3 mg/kg, DAY 38): 677 +/− 118
- tumor volume changes from baseline, Median +/− MAD (9.3 mg/kg, DAY 42): 827.5 +/− 293.5
- tumor volume changes from baseline, Median +/− MAD (9.3 mg/kg, DAY 46): 1187 +/− 347.5
- #CR (15 mg/kg i.v./q4dx3): 0/0/0
- #PR (15 mg/kg i.v./q4dx3): 0/0/0
- #TFS (15 mg/kg i.v./q4dx3): 0/0/0
- Drug Deaths Total (15 mg/kg i.v./q4dx3): 0
- Weight Nadir % (15 mg/kg i.v./q4dx3): −8%
- Weight Nadir Day (15 mg/kg i.v./q4dx3): 17
- Tumor Volume Data (Day 28) Median (15 mg/kg i.v./q4dx3, day 28): 178 mm^3
- ΔT/ΔC % (15 mg/kg i.v./q4dx3, day 28): 3.2%
- MTTE [3]: >59 days
- T-C [3]: >28 days
- numbers of PR (15 mg/kg q4d×3 IV): 0/10
- tumor volume changes from baseline, Median +/− MAD (15 mg/kg, DAY 3): 26 +/− 26
- tumor volume changes from baseline, Median +/− MAD (15 mg/kg, DAY 8): 26 +/− 26
- tumor volume changes from baseline, Median +/− MAD (15 mg/kg, DAY 11): 13 +/− 16.5
- tumor volume changes from baseline, Median +/− MAD (15 mg/kg, DAY 14): 13 +/− 16.5
- tumor volume changes from baseline, Median +/− MAD (15 mg/kg, DAY 17): 13 +/− 16.5
- tumor volume changes from baseline, Median +/− MAD (15 mg/kg, DAY 21): 0 +/− 19
- tumor volume changes from baseline, Median +/− MAD (15 mg/kg, DAY 24): 22.5 +/− 23.5
- tumor volume changes from baseline, Median +/− MAD (15 mg/kg, DAY 28): 36.5 +/− 35.5
- tumor volume changes from baseline, Median +/− MAD (15 mg/kg, DAY 31): 42.5 +/− 29.5
- tumor volume changes from baseline, Median +/− MAD (15 mg/kg, DAY 35): 61 +/− 61
- tumor volume changes from baseline, Median +/− MAD (15 mg/kg, DAY 38): 61 +/− 81
- tumor volume changes from baseline, Median +/− MAD (15 mg/kg, DAY 42): 107 +/− 90
- tumor volume changes from baseline, Median +/− MAD (15 mg/kg, DAY 46): 155 +/− 153
- #CR (24.2 mg/kg i.v./q4dx3): 0
- #PR (24.2 mg/kg i.v./q4dx3): 1
- #TFS (24.2 mg/kg i.v./q4dx3): 0
- Drug Deaths Total (24.2 mg/kg i.v./q4dx3): 0
- Weight Nadir % (24.2 mg/kg i.v./q4dx3): −13%
- Weight Nadir Day (24.2 mg/kg i.v./q4dx3): 17
- ΔT/ΔC % (24.2 mg/kg i.v./q4dx3, day 28): 0%
- MTTE [4]: >59 days
- T-C [4]: >28 days
- numbers of PR (24.2 mg/kg q4d×3 IV): 1/10
- tumor volume changes from baseline, Median +/− MAD (24.2 mg/kg, DAY 3): 29.5 +/− 13.5
- tumor volume changes from baseline, Median +/− MAD (24.2 mg/kg, DAY 8): 22.5 +/− 22.5
- tumor volume changes from baseline, Median +/− MAD (24.2 mg/kg, DAY 11): 0 +/− 22
- tumor volume changes from baseline, Median +/− MAD (24.2 mg/kg, DAY 14): −9.5 +/− 35
- tumor volume changes from baseline, Median +/− MAD (24.2 mg/kg, DAY 17): −9.5 +/− 26
- tumor volume changes from baseline, Median +/− MAD (24.2 mg/kg, DAY 21): −9.5 +/− 26
- tumor volume changes from baseline, Median +/− MAD (24.2 mg/kg, DAY 24): 0 +/− 0
- tumor volume changes from baseline, Median +/− MAD (24.2 mg/kg, DAY 28): 0 +/− 9.5
- tumor volume changes from baseline, Median +/− MAD (24.2 mg/kg, DAY 31): 0 +/− 9.5
- tumor volume changes from baseline, Median +/− MAD (24.2 mg/kg, DAY 35): 0 +/− 9.5
- tumor volume changes from baseline, Median +/− MAD (24.2 mg/kg, DAY 38): 0 +/− 9.5
- tumor volume changes from baseline, Median +/− MAD (24.2 mg/kg, DAY 42): 0 +/− 9.5
- tumor volume changes from baseline, Median +/− MAD (24.2 mg/kg, DAY 46): 50.5 +/− 47.5
